Test [1] addresses T1, N-type calcium channel (Homo sapiens, UniProt Q00975). As to the kind of experiment: N-type calcium channel antagonistic activity, changed procedure (fluorescence dye method, calculated from inhibition rates). Format: cell-based. As to conditions: IMR-32 cells, 60 mM KCl stimulation, Table 3, read-out: N-type inhibition pIC50 (converted).
Test [2] deals with T1, N-type calcium channel. As to the kind of experiment: Antagonistic activity on N-type calcium channel (fluorescence dye method). The test is classed as cell-based.

SMILES strings stand for the structures.

T1 sequence (Q00975 whole entry): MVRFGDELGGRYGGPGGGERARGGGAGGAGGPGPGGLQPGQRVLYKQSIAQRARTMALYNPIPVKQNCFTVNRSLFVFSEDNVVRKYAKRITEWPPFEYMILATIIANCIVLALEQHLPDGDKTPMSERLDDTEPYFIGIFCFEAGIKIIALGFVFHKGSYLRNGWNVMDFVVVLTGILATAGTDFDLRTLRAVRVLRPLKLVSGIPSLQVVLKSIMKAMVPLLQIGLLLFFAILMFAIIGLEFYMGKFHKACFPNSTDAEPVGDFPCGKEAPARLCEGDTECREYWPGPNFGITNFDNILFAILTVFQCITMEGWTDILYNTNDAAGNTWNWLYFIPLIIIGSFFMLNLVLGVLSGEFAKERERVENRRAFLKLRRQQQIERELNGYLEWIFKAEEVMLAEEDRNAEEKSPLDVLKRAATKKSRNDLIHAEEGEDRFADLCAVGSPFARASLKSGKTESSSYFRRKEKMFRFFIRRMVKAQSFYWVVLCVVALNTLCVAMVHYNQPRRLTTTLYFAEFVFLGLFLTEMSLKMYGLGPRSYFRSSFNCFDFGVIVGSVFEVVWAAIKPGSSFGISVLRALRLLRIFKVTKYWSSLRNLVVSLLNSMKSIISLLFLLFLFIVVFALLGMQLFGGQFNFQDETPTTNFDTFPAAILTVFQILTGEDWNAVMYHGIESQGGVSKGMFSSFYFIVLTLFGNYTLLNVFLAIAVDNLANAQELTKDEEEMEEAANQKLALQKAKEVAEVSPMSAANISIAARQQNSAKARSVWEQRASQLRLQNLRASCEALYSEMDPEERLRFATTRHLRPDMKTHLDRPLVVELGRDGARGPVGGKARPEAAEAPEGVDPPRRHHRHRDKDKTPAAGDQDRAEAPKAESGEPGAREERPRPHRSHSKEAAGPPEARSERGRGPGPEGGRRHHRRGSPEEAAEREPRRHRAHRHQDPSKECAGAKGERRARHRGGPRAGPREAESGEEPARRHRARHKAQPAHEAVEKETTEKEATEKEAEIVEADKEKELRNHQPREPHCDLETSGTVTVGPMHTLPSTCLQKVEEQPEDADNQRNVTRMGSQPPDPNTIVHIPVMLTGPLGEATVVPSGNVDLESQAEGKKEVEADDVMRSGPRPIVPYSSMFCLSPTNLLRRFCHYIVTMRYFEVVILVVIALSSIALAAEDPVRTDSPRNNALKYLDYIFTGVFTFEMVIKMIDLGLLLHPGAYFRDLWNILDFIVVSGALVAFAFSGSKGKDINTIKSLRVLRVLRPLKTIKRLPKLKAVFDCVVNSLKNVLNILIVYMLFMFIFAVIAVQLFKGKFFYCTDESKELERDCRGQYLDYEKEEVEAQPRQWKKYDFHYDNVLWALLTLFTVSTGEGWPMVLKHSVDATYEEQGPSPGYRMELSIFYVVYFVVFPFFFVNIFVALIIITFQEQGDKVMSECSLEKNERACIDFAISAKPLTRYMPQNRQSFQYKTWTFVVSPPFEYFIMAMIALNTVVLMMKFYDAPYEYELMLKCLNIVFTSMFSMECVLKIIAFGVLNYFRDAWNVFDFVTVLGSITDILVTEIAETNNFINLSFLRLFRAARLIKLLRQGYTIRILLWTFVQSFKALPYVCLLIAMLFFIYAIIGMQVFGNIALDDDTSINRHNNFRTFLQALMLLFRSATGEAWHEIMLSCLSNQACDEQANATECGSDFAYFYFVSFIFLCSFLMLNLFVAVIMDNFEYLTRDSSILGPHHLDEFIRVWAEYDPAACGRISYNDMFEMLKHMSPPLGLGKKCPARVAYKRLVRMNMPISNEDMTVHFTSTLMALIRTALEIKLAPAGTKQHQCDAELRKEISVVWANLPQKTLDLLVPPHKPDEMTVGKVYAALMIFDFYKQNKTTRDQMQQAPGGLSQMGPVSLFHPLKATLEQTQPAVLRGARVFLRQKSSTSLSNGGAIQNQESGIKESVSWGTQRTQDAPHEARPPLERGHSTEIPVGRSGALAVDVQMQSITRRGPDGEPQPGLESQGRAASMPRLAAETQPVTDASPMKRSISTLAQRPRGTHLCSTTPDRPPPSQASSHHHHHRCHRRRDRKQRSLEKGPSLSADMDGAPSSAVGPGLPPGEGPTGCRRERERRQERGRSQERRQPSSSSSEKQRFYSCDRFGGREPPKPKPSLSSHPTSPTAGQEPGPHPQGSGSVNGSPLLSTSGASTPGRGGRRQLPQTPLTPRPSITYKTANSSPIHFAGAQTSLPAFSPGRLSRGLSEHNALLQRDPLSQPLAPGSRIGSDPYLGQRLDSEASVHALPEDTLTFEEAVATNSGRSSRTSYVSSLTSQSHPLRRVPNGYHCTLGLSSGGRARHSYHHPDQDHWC
T1 sequence (P54284 whole entry partner): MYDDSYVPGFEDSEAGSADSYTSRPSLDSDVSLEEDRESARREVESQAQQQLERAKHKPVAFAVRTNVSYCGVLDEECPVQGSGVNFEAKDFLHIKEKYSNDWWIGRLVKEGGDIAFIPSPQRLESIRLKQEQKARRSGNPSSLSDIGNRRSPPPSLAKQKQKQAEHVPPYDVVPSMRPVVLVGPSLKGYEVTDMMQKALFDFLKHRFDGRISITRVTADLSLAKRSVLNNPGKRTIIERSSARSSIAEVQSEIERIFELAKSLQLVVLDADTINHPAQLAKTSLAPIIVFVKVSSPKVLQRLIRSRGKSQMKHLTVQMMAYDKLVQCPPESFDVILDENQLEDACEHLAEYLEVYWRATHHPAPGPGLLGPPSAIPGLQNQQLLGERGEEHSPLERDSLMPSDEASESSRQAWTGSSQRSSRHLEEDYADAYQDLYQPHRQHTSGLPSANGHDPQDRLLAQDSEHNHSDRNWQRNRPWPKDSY
T1 sequence (P54289 25-956 partner limits assumed): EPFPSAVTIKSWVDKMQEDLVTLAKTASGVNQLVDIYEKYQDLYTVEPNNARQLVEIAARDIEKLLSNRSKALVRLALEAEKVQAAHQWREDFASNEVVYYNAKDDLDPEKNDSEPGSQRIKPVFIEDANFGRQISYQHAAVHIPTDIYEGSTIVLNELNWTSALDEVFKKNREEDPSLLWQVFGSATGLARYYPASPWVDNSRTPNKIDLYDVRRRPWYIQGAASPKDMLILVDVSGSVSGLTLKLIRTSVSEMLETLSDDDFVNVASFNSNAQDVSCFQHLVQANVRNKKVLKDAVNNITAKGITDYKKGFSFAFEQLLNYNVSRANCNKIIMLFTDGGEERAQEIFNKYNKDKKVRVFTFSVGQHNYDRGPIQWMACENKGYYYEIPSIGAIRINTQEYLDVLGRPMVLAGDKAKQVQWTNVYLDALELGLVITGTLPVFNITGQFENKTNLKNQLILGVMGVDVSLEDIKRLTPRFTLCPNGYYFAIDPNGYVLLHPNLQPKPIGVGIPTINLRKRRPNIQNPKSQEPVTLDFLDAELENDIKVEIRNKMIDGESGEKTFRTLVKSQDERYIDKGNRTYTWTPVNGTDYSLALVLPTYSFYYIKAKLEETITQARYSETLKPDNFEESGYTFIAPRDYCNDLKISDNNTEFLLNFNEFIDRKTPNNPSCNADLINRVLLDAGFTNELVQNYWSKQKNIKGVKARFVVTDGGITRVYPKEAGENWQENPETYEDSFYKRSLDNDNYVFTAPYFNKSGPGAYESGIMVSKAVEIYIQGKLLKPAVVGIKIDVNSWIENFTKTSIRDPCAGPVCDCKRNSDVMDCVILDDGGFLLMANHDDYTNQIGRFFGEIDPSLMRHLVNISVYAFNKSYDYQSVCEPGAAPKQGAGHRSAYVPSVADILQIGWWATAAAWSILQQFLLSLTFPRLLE
T1 sequence (P54289 957-1103 partner limits assumed): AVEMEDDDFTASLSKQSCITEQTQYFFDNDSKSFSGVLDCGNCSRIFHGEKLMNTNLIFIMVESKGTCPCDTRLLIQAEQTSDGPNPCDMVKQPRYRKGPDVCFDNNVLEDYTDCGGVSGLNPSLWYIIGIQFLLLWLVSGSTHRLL

`O=C(NCCC(c1ccccc1)c1ccccc1)C1=C(COCCC2CCCCC2)NC(c2ccccc2)=NC1c1cccc(Cl)c1` (stereo not shown) [Example 1, 4-(3-chlorophenyl)-6-[(2-cyclohexylethoxy)methyl]-5-(3,3-diphenylpropylcarbamoyl)-2-phenyl-1,4-dihydropyrimidine]: the IC50 on N-type calcium channel [1] is 7.94 µM; on N-type calcium channel [2] it was 1.26 µM. On to `O=C(NC/C=C/c1ccccc1)C1=C(COCCC2CCCCC2)NC(c2ccccc2)=NC1c1cccc(Cl)c1` (stereo not shown) [Example 2, 4-(3-chlorophenyl)-6-[(2-cyclohexylethoxy)methyl]-2-phenyl-5-[(3-phenyl-2-propene-1-yl)-carbamoyl]-1,4-dihydropyrimidine], for which, on N-type calcium channel [2], the IC50 was 5.89 µM. Consider `CC1=C(C(=O)NCCC(c2ccccc2)c2ccccc2)C(c2cccc(Cl)c2)NC(=O)N1` (stereo not shown) [Example 3, 4-(3-chlorophenyl)-6-methyl-2-oxo-1,2,3,4-tetrahydropyrimidine-5-carboxylic acid (3,3-diphenylpropyl)amide], for which the IC50 was 2.51 µM on N-type calcium channel [1] and 0.891 µM at N-type calcium channel [2]. On the same counts, the results for `COCC1=C(C(=O)NCCCc2ccccc2)C(c2cccc(Cl)c2)NC(=O)N1` (stereo not shown) [Example 6, 4-(3-chlorophenyl)-6-methoxymethyl-2-oxo-1,2,3,4-tetrahydropyrimidine-5-carboxylic acid (3-phenylpropyl)amide] are 5.01 µM and 0.977 µM. Turning to `[N-]=[N+]=NCCOCC1=C(C(=O)NCCC(c2ccccc2)c2ccccc2)C(c2cccc(Cl)c2)NC(=O)N1` (stereo not shown) [Example 15, 6-(2-azidoethoxymethyl)-4-(3-chlorophenyl)-2-oxo-1,2,3,4-tetrahydropyrimidine-5-carboxylic acid (3,3-diphenylpropyl)amide], the IC50 on N-type calcium channel [1] is 2.51 µM. Same read-out and setting: the result for `CCOC(=O)CN1C(=O)NC(C)=C(C(=O)NC/C=C/c2ccccc2)C1c1cccc(Cl)c1` (stereo not shown) [Example 45, ethyl [6-(3-chlorophenyl)-4-methyl-2-oxo-5-(3-phenyl-2-propene-1-ylcarbamoyl)-3,6-dihydro-2H-pyrimidine-1-yl]acetate] reads 3.98 µM; that for `CC1=C(C(=O)NCCC(c2ccccc2)c2ccccc2)C(c2ccc(Cl)c(Cl)c2)N=C(c2cccnc2)N1` (stereo not shown) [Example 64, 4-(3,4-dichlorophenyl)-6-methyl-2-pyridine-3-yl-1,4-dihydropyrimidine-5-carboxylic acid (3,3-diphenylpropyl)amide], 1.26 µM; that for `CC1=C(C(=O)NCCC(c2ccccc2)c2ccccc2)C(c2cccc(Cl)c2)N=C(c2ccccc2)N1` (stereo not shown) [Example 67, 4-(3-chlorophenyl)-6-methyl-2-phenyl-1,4-dihydro-pyrimidine-5-carboxylic acid (3,3-diphenylpropyl)amide], 1.58 µM.

Consider `CC1=C(C(=O)NC/C=C/c2ccccc2)C(c2cccc(Cl)c2)N=C(c2ccccc2)N1` (stereo not shown) [Example 68, 4-(3-chlorophenyl)-6-methyl-2-phenyl-1,4-dihydropyrimidine-5-carboxylic acid (3-phenyl-2-propene-1-yl)amide], for which the IC50 at N-type calcium channel [1] was 1.26 µM.

Regarding `CC1=C(C(=O)NC/C=C/c2ccccc2)C(c2ccc(Cl)c(Cl)c2)N=C(c2ccccc2)N1` (stereo not shown) [Example 75, 4-(3,4-dichlorophenyl)-6-methyl-2-phenyl-1,4-dihydropyrimidine-5-carboxylic acid (3-phenyl-2-propene-1-yl)amide], the IC50 at N-type calcium channel [1] was 2 µM.

The values above are taken from patent US6855716B2, “Dihydropyrimidine compounds and compositions containing the same” (Ajinomoto Co., Inc., priority 1999, dated 2005).
